The values that follow come from patent US11478461B2, “[1.1.1] bicyclo compounds as indoleamine 2,3-dioxygenase inhibitors” (Merck Sharp & Dohme Corp., priority 2018, dated 2022).

Broadly, the IC50 is the concentration that inhibits the measured activity by half.

The target in the assay is IDO1 (Homo sapiens, UniProt P14902). The assay is described as follows: IDO1 Cellular Assay in Hela Cells Stimulated with IFNγ. Particulars: IFNγ 100 ng/mL, 300 uM L-tryptophan, about 48 hours, fluorescence readout, read-out: IDO1 HELA Cell Assay, IC50. It counts as cell-based. The procedure:
Biological Assays IDO1 Cellular Assay in Hela Cells Stimulated with IFNγ
Hela cells were cultured in complete Hela culture medium ([…], 10% heat-inactivated fetal bovine serum) and expanded to about 1×10^9 cells. The cells were then collected and frozen down at 10×10^6 cells/vial in 1 mL frozen medium (90% complete Hela culture medium, 10% DMSO).
Compounds to be tested were serially diluted in ten 3-fold steps in DMSO starting from 10 mM DMSO stocks in Echo low volume plate(s). Compound dilutions or DMSO alone were then dispensed from the dilution plate(s) into Greiner black 384-well assay plate(s) (catalog #781086, 50 nL/well) using an Echo 550 acoustic liquid handler (Labcyte).
Frozen Hela cells were thawed and transferred into Hela assay medium (99% complete Hela culture medium, 1% Pen/Strep) with 20 mL medium/vial of cells. The cells were spun down at 250 g in a table top centrifuge for 5 min and suspended in same volume of Hela assay medium. […] Sterile L-tryptophan were added to the cells with final concentration of 300 uM L-tryptophan. A small aliquot (2 mL/plate) of Hela cells were set aside and were not treated with IFNγ, to serve as the Max-E control. The rest of Hela cells were added with sterile IFNγ (Cat #285-IF, R & D systems) with a final concentration of 100 ng/mL.
Hela cells with and without IFNγ were dispensed to the respective wells of 384-well assay plates containing the compounds. The plates were incubated for about 48 hours at a 37° C., 5% CO2 incubator. Afterwards, 12 μL of 0.5 M methyl isonipecotate in dimethyl sulfoxide were added into each well and the plates were sealed and incubated at 37° C. without CO2 overnight. The plates were centrifuged for 1 min at 200×g. The resulting fluorescence was measured in a Spectramax plate reader (Molecular Devices) with a 400 nm excitation filter and a 510 nm emission filter.
Potencies were calculated by […] least squares fit to the four parameter logistic IC50 equation.

IDO1, sequence (P14902 whole entry): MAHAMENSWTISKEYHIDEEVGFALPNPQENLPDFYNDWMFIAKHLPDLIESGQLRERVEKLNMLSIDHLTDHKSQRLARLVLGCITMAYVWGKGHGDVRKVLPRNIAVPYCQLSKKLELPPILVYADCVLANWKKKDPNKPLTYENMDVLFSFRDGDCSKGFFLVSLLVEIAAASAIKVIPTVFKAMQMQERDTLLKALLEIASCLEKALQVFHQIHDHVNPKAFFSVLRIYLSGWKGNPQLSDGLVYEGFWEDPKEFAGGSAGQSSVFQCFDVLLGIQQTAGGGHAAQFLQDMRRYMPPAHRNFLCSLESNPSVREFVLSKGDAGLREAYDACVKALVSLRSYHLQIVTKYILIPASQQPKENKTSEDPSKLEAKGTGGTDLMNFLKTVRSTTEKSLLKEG

Turning to `C[C@H](C(=O)Nc1ccc(F)cc1)C12CC(NC(=O)c3ccc(F)c(Cl)c3)(C1)C2` [Example 48, 3-chloro-4-fluoro-N-[3-[(1S)-2-(4-fluoroanilino)-1-methyl-2-oxo-ethyl]-1-bicyclo[1.1.1]pentanyl]benzamide], the IC50 was found to be 1.72 nM. Under `C[C@H](C(=O)Nc1ccc(F)cc1)C12CC(NC(=O)Nc3cccc(Cl)c3)(C1)C2` [Example 81, (S)-2-(3-(3-(3-chlorophenyl)ureido)bicyclo [1.1.1]pentan-1-yl)-N-(4-fluorophenyl)propanamide] stands 15.4 nM; under `CC(C)(NC(=O)c1ccc(F)cc1)C12CC(NC(=O)c3ccc(Cl)c(Cl)c3)(C1)C2` [Example 103, 3,4-Dichloro-N-(3-(2-(4-fluorobenzamido)propan-2-yl)bicyclo[1.1.1]pentan-1-yl)benzamide], 46.9 nM; under `CC(C)(C(=O)Nc1ccc(F)cc1)C12CC(NC(=O)c3ccc(Cl)c(Cl)c3)(C1)C2` [Example 101, 3,4-Dichloro-N-(3-(1-((4-fluorophenyl)amino)-2-methyl-1-oxopropan-2-yl)bicyclo[1.1.1]pentan-1-yl)benzamide], 16.9 nM. Under `Cc1c(Cl)cccc1NC(=O)NC12CC([C@H](C)C(=O)Nc3ccc(F)cc3)(C1)C2` [Example 84, (S)-2-(3-(3-(3-chloro-2-methylphenyl)ureido)bicyclo [1.1.1]pentan-1-yl)-N-(4-fluorophenyl)propanamide] stands 77.2 nM. In the case of `Cc1cc(C(=O)NC23CC([C@@H](C)C(=O)Nc4ccc(F)cc4)(C2)C3)ccc1Cl` [Example 45, 4-chloro-N-[3-[(1R)-2-(4-fluoroanilino)-1-methyl-2-oxo-ethyl]-1-bicyclo[1.1.l]pentanyl]-3-methyl-benzamide], the IC50 came out at 109 nM. As to `C[C@H](C(=O)Nc1ccc(F)c(F)c1)C12CC(NC(=O)c3ccc(Cl)c(Cl)c3)(C1)C2` [Example 97, (S)-3,4-dichloro-N-(3-(1-((3,4-difluorophenyl)amino)-1-oxopropan-2-yl)bicyclo[1.1.1]pentan-1-yl)benzamide], the half-maximal inhibitory concentration (IC50) turned out to be 260 nM. Take `CCc1ccnc(C(=O)NC23CC(C(C)C(=O)Nc4ccc(F)cc4)(C2)C3)c1` (centres unmarked) [Example 117, 4-ethyl-N-[3-[2-(4-fluoroanilino)-1-methyl-2-oxo-ethyl]-1-bicyclo[1.1.1]pentanyl]pyridin-1-ium-2-carboxamide]: the IC50 turned out to be 73.5 nM. Under `O=C(NC12CC(C3(C(=O)Nc4ccc(F)cc4)COC3)(C1)C2)c1cccc(Cl)c1` [Example 104, 3-(3-(3-Chlorobenzamido)bicyclo[1.1.1]pentan-1-yl)-N-(4-fluorophenyl)oxetane-3-carboxamide] stands 20.7 nM; under `Cc1cc(C(=O)NC23CC([C@H](C)C(=O)Nc4ccc(F)cc4)(C2)C3)ccc1F` [Example 54, 4-fluoro-N-[3-[(1S)-2-(4-fluoroanilino)-1-methyl-2-oxo-ethyl]-1-bicyclo[1.1.1]pentanyl]-3-methyl-benzamide], 187 nM; under `Cc1nc(C(=O)NC23CC(C(C)C(=O)Nc4ccc(F)cc4)(C2)C3)cs1` (centres unmarked) [Example 123, N-[3-[2-(4-fluoroanilino)-1-methyl-2-oxo-ethyl]-1-bicyclo[1.1.1]pentanyl]-2-methyl-thiazole-4-carboxamide], 147 nM.

Turning to `Cc1c(Cl)cccc1C(=O)NC12CC([C@H](C)C(=O)Nc3ccc(F)cc3)(C1)C2` [Example 53, 3-chloro-N-[3-[(1S)-2-(4-fluoroanilino)-1-methyl-2-oxo-ethyl]-1-bicyclo[1.1.1]pentanyl]-2-methyl-benzamide], the IC50 was 123 nM. The result for `C[C@@H](C(=O)Nc1ccc(F)cc1)C12CC(NC(=O)c3cccc(Cl)n3)(C1)C2` [Example 33, (R)-6-Chloro-N-(3-(1-((4-fluorophenyl)amino)-1-oxopropan-2-yl)bicyclo[1.1.1]pentan-1-yl)picolinamide] reads 7180 nM; that for `Cc1cc(C(=O)NC23CC([C@H](C)C(=O)Nc4ccc(F)cc4)(C2)C3)ccc1Cl` [Example 50, 4-chloro-N-[3-[(1S)-2-(4-fluoroanilino)-1-methyl-2-oxo-ethyl]-1-bicyclo[1.1.l]pentanyl]-3-methyl-benzamide], 3.29 nM; that for `Cc1noc(C(=O)NC23CC(C(C)C(=O)Nc4ccc(F)cc4)(C2)C3)n1` (centres unmarked) [Example 114, N-[3-[2-(4-fluoroanilino)-1-methyl-2-oxo-ethyl]-1-bicyclo[1.1.1]pentanyl]-3-methyl-1,2,4-oxadiazole-5-carboxamide], 59.6 nM. The result for `CC(C(=O)Nc1ccc(Cl)cc1)C12CC(NC(=O)OC3CC3)(C1)C2` (single isomer, unassigned) [Example 20, Cyclopropyl (3-(1-((4-chlorophenyl)amino)-1-oxopropan-2-yl)bicyclo [1.1.1]pentan-1-yl) carbamate] reads 29.2 nM; that for `CC(NC(=O)c1ccc(F)cc1)C12CC(NC(=O)c3ccc(Cl)c(Cl)c3)(C1)C2` (single isomer, unassigned) [Example 22, 3,4-Dichloro-N-(3-(1-(4-fluorobenzamido)ethyl)bicyclo [1.1.1]pentan-1-yl) Benzamide], 28.7 nM. The result for `CC(C(=O)Nc1ccc(F)cc1)C12CC(NC(=O)Cc3ccccc3C(F)(F)F)(C1)C2` (centres unmarked) [Example 128, N-(4-fluorophenyl)-2-[3-[[2-[2-(trifluoromethyl)phenyl]acetyl]amino]-1-bicyclo[1.1.1]pentanyl]propanamide] reads 194 nM. As for `C[C@H](C(=O)Nc1ccc(F)cc1)C12CC(NC(=O)c3ccc4cccnc4c3)(C1)C2` [Example 147, (S)-N-(3-(1-((4-fluorophenyl)amino)-1-oxopropan-2-yl)bicyclo[1.1.1]pentan-1-yl)quinoline-7-carboxamide], the IC50 is 176 nM. The result for `CC(C(=O)Nc1ccc(Cl)cc1)C12CC(NC(=O)c3cccc(C#N)c3)(C1)C2` (single isomer, unassigned) [Example 12, N-(3-(1-((4-chlorophenyl)amino)-1-oxopropan-2-yl)bicyclo[1.1.1]pentan-1-yl)-3-cyanobenzamide] reads 97.9 nM; that for `CC(C)OC(=O)NC12CC([C@H](C)C(=O)Nc3ccc(F)cc3)(C1)C2` [Example 79, isopropyl (S)-(3-(1-((4-fluorophenyl)amino)-1-oxopropan-2-yl)bicyclo[1.1.1]pentan-1-yl)carbamate], 20.4 nM; that for `Cc1cc(C(=O)NC23CC([C@H](C)C(=O)Nc4ccc(F)cc4)(C2)C3)ccc1C#N` [Example 151, (S)-4-cyano-N-(3-(1-((4-fluorophenyl)amino)-1-oxopropan-2-yl)bicyclo[1.1.1]pentan-1-yl)-3-methylbenzamide], 55.6 nM. Under `CC(C(=O)Nc1ccc(Cl)nc1)C12CC(NC(=O)c3cccc(Cl)c3)(C1)C2` (single isomer, unassigned) [Example 16, 3-chloro-N-(3-(1-((6-chloropyridin-3-yl)amino)-1-oxopropan-2-yl)bicyclo[1.1.1]pentan-1-yl)benzamide] stands 183 nM.

As to `C[C@H](C(=O)Nc1ccc(F)c(Cl)c1)C12CC(NC(=O)c3ccc(Cl)c(Cl)c3)(C1)C2` [Example 96, (S)-3,4-dichloro-N-(3-(1-((3-chloro-4-fluorophenyl)amino)-1-oxopropan-2-yl)bicyclo[1.1.1]pentan-1-yl)benzamide], the IC50 is 78.4 nM. For `C[C@H](C(=O)Nc1ccc(F)cc1)C12CC(NC(=O)c3ccnc(C(F)(F)F)c3)(C1)C2` [Example 66, N-[3-[(1S)-2-(4-fluoroanilino)-1-methyl-2-oxo-ethyl]-1-bicyclo[1.1.1]pentanyl]-2-(trifluoromethyl)pyridin-1-ium-4-carboxamide], the IC50 was determined as 13.1 nM. Under `O=C(NC12CC(C3(C(=O)Nc4ccc(F)cc4)CCC3)(C1)C2)c1cccc(Cl)c1` [Example 3, 3-Chloro-N-(3-(1-((4-fluorophenyl)carbamoyl)cyclobutyl)bicyclo [1.1.1]pentan-1-yl) Benzamide] stands 6.29 nM; under `C[C@H](C(=O)Nc1ccc(F)cc1)C12CC(NC(=O)Nc3ccc(F)c(Cl)c3)(C1)C2` [Example 83, (S)-2-(3-(3-(3-chloro-4-fluorophenyl)ureido)bicyclo [1.1.1]pentan-1-yl)-N-(4-fluorophenyl)propanamide], 39 nM. Take `Cc1ccc(C(=O)NC23CC([C@H](C)C(=O)Nc4ccc(F)cc4)(C2)C3)nc1Cl` [Example 61, 6-chloro-N-[3-[(1S)-2-(4-fluoroanilino)-1-methyl-2-oxo-ethyl]-1-bicyclo[1.1.1]pentanyl]-5-methyl-pyridin-1-ium-2-carboxamide]: the IC50 amounted to 11 nM.

In the case of `C[C@H](C(=O)Nc1ccc(F)cc1)C12CC(NC(=O)c3cnc(Cl)c(Cl)c3)(C1)C2` [Example 63, 5,6-dichloro-N-[3-[(1S)-2-(4-fluoroanilino)-1-methyl-2-oxo-ethyl]-1-bicyclo[1.1.1]pentanyl]pyridin-1-ium-3-carboxamide], the IC50 was 11.4 nM.
